Laboratory results from EPA's ToxRefDB 2.

Assays:
[1] = test system: dog; details: Chronic toxicity; beagle; Oral; Feed; dose end: 52 week; group: systemic; systemic / clinical chemistry / albumin / albumin + systemic / clinical chemistry / cholesterol / cholesterol + systemic / clinical …
[2] = test system: rat; details: Combined chronic toxicity/carcinogenicity, sprague dawley, Oral, Feed, dose end: 104 week, group: systemic
[3] = test system: rat; details: Multigenerational reproductive toxicity study, sprague dawley, Oral, Feed, dose end: 2 generation
[4] = test system: mouse; details: Carcinogenicity; cd1; Oral; Feed; dose end: 97 week; group: systemic; systemic / in life observation / body weight / body weight + systemic / in life observation / body weight / body weight gain + systemic / …
[5] = test system: dog; details: Subchronic oral toxicity in nonrodent, beagle, Feed, dose end: 90 day, group: systemic, systemic / clinical chemistry / albumin / albumin + systemic / clinical chemistry / calcium / calcium + systemic / clinical chemistry / …
[6] = test system: rat; details: Prenatal developmental toxicity study, sprague dawley, Oral, Gavage/Intubation, dose end: 15 GD
[7] = test system: mouse; details: Sub-acute repeat dose toxicity, b6c3f1, Oral, Gavage/Intubation, dose end: 14 day, group: systemic
[8] = test system: rat; details: Sub-acute repeat dose toxicity, fischer, Oral, Gavage/Intubation, dose end: 14 day, group: systemic
[9] = test system: rat; details: Carcinogenicity, fischer, Oral, Gavage/Intubation, dose end: 103 week, group: systemic
[10] = test system: rat; details: Subchronic oral toxicity in rodents, fischer, Gavage/Intubation, dose end: 13 week, group: systemic
[11] = test system: mouse; details: Subchronic oral toxicity in rodents, b6c3f1, Gavage/Intubation, dose end: 13 week, group: systemic
[12] = test system: mouse; details: Carcinogenicity, b6c3f1, Oral, Gavage/Intubation, dose end: 103 week, group: systemic
[13] = systemic / hematology / erythrocyte (rbc) count differential / erythrocyte (rbc) + systemic / hematology / hematocrit (hct) / hematocrit (…
[14] = group: offspring, systemic / in life observation / body weight / offspring (pup) weight + systemic / in life observation / body weight / offspring (pup) …
[15] = group: parental, systemic / in life observation / body weight / body weight gain
[16] = group: parental, systemic / in life observation / body weight / body weight gain + systemic / in life observation / body weight / body weight + systemic / in…
[17] = group: developmental, developmental / developmental malformation / bone / incomplete ossification
[18] = group: developmental, developmental / developmental malformation / bone / incomplete ossification + developmental / developmental malformation / bone / short …
[19] = group: maternal, systemic / in life observation / body weight / body weight gain + systemic / in life observation / clinical signs / [other] + systemic / in …
[20] = systemic / in life observation / body weight / body weight
[21] = systemic / in life observation / body weight / body weight + systemic / in life observation / clinical signs / abnormal posture + systemic…
[22] = systemic / pathology microscopic / liver / vacuolization cytoplasmic + systemic / pathology microscopic / liver / degeneration
[23] = systemic / pathology microscopic / liver / vacuolization cytoplasmic + systemic / pathology microscopic / liver / degeneration + systemic / …
[24] = systemic / pathology microscopic / liver / necrosis + systemic / pathology microscopic / liver / vacuolization cytoplasmic + systemic / in …
[25] = systemic / pathology microscopic / liver / vacuolization cytoplasmic
[26] = systemic / pathology microscopic / liver / vacuolization cytoplasmic + systemic / in life observation / body weight / body weight + systemic…
[27] = systemic / pathology microscopic / liver / vacuolization cytoplasmic + systemic / in life observation / clinical signs / defecation (…

## CN(C)C(=S)SSC(=S)N(C)C [Thiram]
[1]
  LEL: 0.84 mg/kg/day
  LOAEL: 0.84 mg/kg/day
  NEL: < 0.84 mg/kg/day
  NOAEL: < 0.84 mg/kg/day
[2]; [13]
  LEL: 1.8 mg/kg/day
  NEL: < 1.8 mg/kg/day
[2]; systemic / in life observation / body weight / body weight gain
  LOAEL: 7.3 mg/kg/day
[2]; systemic / in life observation / body weight / body weight gain + systemic / clinical chemistry / glucose / glucose + systemic / hematology…
  NOAEL: 1.5 mg/kg/day
[3]; [14]
  LEL: 4.9 mg/kg/day
  LOAEL: 4.9 mg/kg/day
  NEL: 1.7 mg/kg/day
  NOAEL: 1.7 mg/kg/day
[3]; [15]
  LEL: 4.7 mg/kg/day
  LOAEL: 4.7 mg/kg/day
[3]; [16]
  NEL: 1.6 mg/kg/day
  NOAEL: 1.6 mg/kg/day
[4]
  LEL: 24 mg/kg/day
  LOAEL: 24 mg/kg/day
  NEL: 2.5 mg/kg/day
  NOAEL: 2.5 mg/kg/day
[5]
  LEL: 2.26 mg/kg/day
  LOAEL: 7.01 mg/kg/day
  NEL: < 2.26 mg/kg/day
  NOAEL: 2.26 mg/kg/day
[6]; [17]
  LEL: 7.5 mg/kg/day
  NEL: < 7.5 mg/kg/day
[6]; [18]
  LOAEL: 15 mg/kg/day
  NOAEL: 7.5 mg/kg/day
[6]; [19]
  LEL: 7.5 mg/kg/day
  LOAEL: 7.5 mg/kg/day
  NEL: < 7.5 mg/kg/day
  NOAEL: < 7.5 mg/kg/day

## OC[P+](CO)(CO)CO.[Cl-] [Tetrakis(hydroxymethyl)phosphonium chloride]
[7]; [20]
  LEL: 18.8 mg/kg/day
  LOAEL: 150 mg/kg/day
  NEL: < 18.8 mg/kg/day
[7]; systemic / in life observation / body weight / body weight + systemic / in life observation / mortality / mortality
  NOAEL: 75 mg/kg/day
[8]; [20]
  LEL: 18.8 mg/kg/day
  LOAEL: 37.5 mg/kg/day
[8]; [21]
  NEL: 9.4 mg/kg/day
  NOAEL: 18.8 mg/kg/day
[9]; [22]
  LOAEL: 3.75 mg/kg/day
  NOAEL: < 3.75 mg/kg/day
[9]; [23]
  LEL: 3.75 mg/kg/day
  NEL: < 3.75 mg/kg/day
[10]; systemic / in life observation / body weight / body weight + systemic / pathology microscopic / liver / necrosis + systemic / pathology …
  NEL: 3.75 mg/kg/day
[10]; [24]
  LOAEL: 30 mg/kg/day
  NOAEL: 15 mg/kg/day
[10]; [25]
  LEL: 7.5 mg/kg/day
[11]; [25]
  LEL: 15 mg/kg/day
[11]; [26]
  NEL: 4.5 mg/kg/day
  NOAEL: 15 mg/kg/day
[11]; systemic / pathology microscopic / liver / vacuolization cytoplasmic + systemic / pathology microscopic / liver / necrosis
  LOAEL: 45 mg/kg/day
[12]; [25]
  LOAEL: 7.5 mg/kg/day
  NOAEL: < 7.5 mg/kg/day
[12]; [27]
  LEL: 7.5 mg/kg/day
  NEL: < 7.5 mg/kg/day
